Laboratory results from the supplement of paper PMC6045584.
± gives the standard deviation of the averaged measurements.

Legend:
[1] = compound: CC(=O)c1c(C)c2cnc(Nc3ccc(N4CCNCC4)cn3)nc2n(C2CCCC2)c1=O; experiment: surviving fraction relative to DMSO-only wells; higher = less growth inhibition; conditions: exposure time: 5 days
How it was run: (§1)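 Lines were retained only if, across three screens, replicate Pearson r was >0.7 and median Z' was >0.3. Viability was measured as CellTiter-Glo luminescence and reported as surviving fraction relative to the median of DMSO-only wells. Readings followed 10 minutes at room temperature, after log-phase tumour cells seeded at 250–500 per well in 384-well plates had been exposed, from 24 hours after seeding, continuously for five days to inhibitors at 0.5, 1, 5, 10, 50, 100, 500 and 1000 nM.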

CARBOPLATIN = compound: O=C(O)C1(C(=O)O)CCC1.[NH2-].[NH2-].[Pt+2] [CARBOPLATIN]; experiment: as above; conditions: exposure time: 5 days
How it was run: as §1

Test System	surviving fraction ([1]; 0.5 nM)	surviving fraction ([1]; 1 nM)	surviving fraction ([1]; 5 nM)	surviving fraction ([1]; 10 nM)	surviving fraction ([1]; 50 nM)	surviving fraction ([1]; 100 nM)	surviving fraction ([1]; 500 nM)	surviving fraction ([1]; 1000 nM)	surviving fraction (CARBOPLATIN; 0.5 nM)	surviving fraction (CARBOPLATIN; 1 nM)	surviving fraction (CARBOPLATIN; 5 nM)	surviving fraction (CARBOPLATIN; 10 nM)	surviving fraction (CARBOPLATIN; 50 nM)	surviving fraction (CARBOPLATIN; 100 nM)	surviving fraction (CARBOPLATIN; 500 nM)	surviving fraction (CARBOPLATIN; 1000 nM)
VCAP PROSTATE	1.08 ± 0.018	1.08 ± 0.025	1.14 ± 0.076	1.17 ± 0.053	1.1 ± 0.13	1.18 ± 0.025	0.829 ± 0.11	0.773 ± 0.0044	1.04 ± 0.067	0.996 ± 0.04	1.11 ± 0.072	1.09 ± 0.11	1.05 ± 0.13	1.21 ± 0.086	1.05 ± 0.07	1.04 ± 0.18
HCC1806 BREAST	0.984 ± 0.095	0.999 ± 0.085	1.05 ± 0.046	1.08 ± 0.17	1.12 ± 0.1	1.09 ± 0.024	0.941 ± 0.17	0.95 ± 0.072	1.05 ± 0.14	0.777 ± 0.044	1.1 ± 0.15	1.2 ± 0.012	1.17 ± 0.081	1.14 ± 0.14	1.04 ± 0.086	1.16 ± 0.14
SAOS2 BONE	1.07 ± 0.062	1.06 ± 0.034	1.13 ± 0.051	1.09 ± 0.037	1.1287 ± 0.00058	1.138 ± 0.0069	1.13 ± 0.065	1.07 ± 0.013	1.1 ± 0.048	1.18 ± 0.014	1.18 ± 0.059	1.16 ± 0.073	1.15 ± 0.051	1.06 ± 0.11	1.09 ± 0.097	0.943 ± 0.22
HS57T BREAST	1.02 ± 0.025	1.08 ± 0.097	1.11 ± 0.052	1.1 ± 0.031	1.16 ± 0.043	1.11 ± 0.032	0.954 ± 0.055	0.96 ± 0.039	1.03 ± 0.015	1.08 ± 0.11	1.09 ± 0.028	1.12 ± 0.029	1.11 ± 0.084	1.08 ± 0.033	1.07 ± 0.092	1.05 ± 0.054
SG43 HEADNECK	0.92 ± 0.039	1 ± 0.12	0.862 ± 0.16	0.855 ± 0.059	0.73 ± 0.11	0.745 ± 0.12	1.02 ± 0.12	0.766 ± 0.28	1.14 ± 0.14	1.13 ± 0.3	0.915 ± 0.18	1.15 ± 0.23	0.826 ± 0.071	0.996 ± 0.19	0.994 ± 0.16	1.07 ± 0.14
SIHA CERVIX	1.09 ± 0.085	1.12 ± 0.087	1.17 ± 0.11	1.11 ± 0.041	1.1 ± 0.039	1.13 ± 0.11	1.12 ± 0.15	1.02 ± 0.067	1.14 ± 0.065	1.18 ± 0.038	1.13 ± 0.088	1.21 ± 0.094	1.16 ± 0.1	1.21 ± 0.044	1.08 ± 0.048	1.14 ± 0.02
KPD BONE	0.924 ± 0.081	0.939 ± 0.029	1.04 ± 0.05	0.961 ± 0.027	0.99 ± 0.069	0.993 ± 0.072	0.775 ± 0.026	0.679 ± 0.041	1.02 ± 0.032	1.07 ± 0.065	1.12 ± 0.033	1.05 ± 0.051	1.09 ± 0.02	1.1 ± 0.05	1.04 ± 0.084	1.03 ± 0.016
YAMATO SYNOVIAL	1.2 ± 0.07	1.14 ± 0.065	1.28 ± 0.11	1.23 ± 0.14	1.3 ± 0.061	1.25 ± 0.047	0.984 ± 0.034	0.935 ± 0.056	1.17 ± 0.066	1.33 ± 0.069	1.34 ± 0.11	1.31 ± 0.051	1.34 ± 0.029	1.29 ± 0.11	1.248 ± 0.0092	1.29 ± 0.051
SCC003 HEADNECK	1.12 ± 0.06	1.02 ± 0.064	1.11 ± 0.036	1.08 ± 0.086	1.13 ± 0.14	1.08 ± 0.076	1.06 ± 0.081	0.884 ± 0.084	1.1 ± 0.075	1.06 ± 0.04	1.1 ± 0.039	1.04 ± 0.025	1.14 ± 0.027	1.03 ± 0.035	1.13 ± 0.17	0.995 ± 0.051
CAL72 BONE	1.1 ± 0.066	1.12 ± 0.061	1.12 ± 0.025	1.13 ± 0.05	1.13 ± 0.037	1.14 ± 0.022	1.14 ± 0.078	1.07 ± 0.048	1.05 ± 0.081	1.03 ± 0.094	1.06 ± 0.035	1.06 ± 0.052	1.12 ± 0.084	1.03 ± 0.23	1.1 ± 0.11	1.01 ± 0.15
HCC1395 BREAST	1.22 ± 0.076	0.965 ± 0.17	1.19 ± 0.088	1.13 ± 0.087	1.28 ± 0.09	1.1 ± 0.11	1.31 ± 0.083	1.34 ± 0.07	1.16 ± 0.058	1.1 ± 0.044	1.16 ± 0.071	1.198 ± 0.0097	1.15 ± 0.16	1.18 ± 0.062	1.17 ± 0.13	1.04 ± 0.1
RDES SOFT TISSUE	1.27 ± 0.17	1.18 ± 0.037	1.23 ± 0.067	1.02 ± 0.19	1.02 ± 0.24	1.02 ± 0.21	1.67 ± 0.18	1.57 ± 0.2	1.23 ± 0.035	0.987 ± 0.091	1.14 ± 0.1	1.11 ± 0.083	1.09 ± 0.15	1.23 ± 0.13	1.08 ± 0.099	1.15 ± 0.14
HCC38 BREAST	1.11 ± 0.12	1.22 ± 0.16	1.23 ± 0.036	1.19 ± 0.14	1.21 ± 0.15	1.09 ± 0.096	1.28 ± 0.12	1.24 ± 0.11	1.07 ± 0.18	0.841 ± 0.19	1.34 ± 0.44	1.15 ± 0.15	0.944 ± 0.04	0.919 ± 0.13	0.962 ± 0.086	1 ± 0.12
HELA CERVIX	1.03 ± 0.037	0.986 ± 0.016	1.01 ± 0.046	0.959 ± 0.04	1.14 ± 0.072	1.15 ± 0.034	1.16 ± 0.021	1.04 ± 0.039	1.07 ± 0.02	1.03 ± 0.042	1.03 ± 0.034	1.01 ± 0.02	1.05 ± 0.053	1.14 ± 0.088	1.15 ± 0.055	1.09 ± 0.045
MDAMB436 BREAST	0.912 ± 0.09	0.888 ± 0.047	1.01 ± 0.054	0.833 ± 0.032	0.92 ± 0.042	0.915 ± 0.07	0.915 ± 0.082	0.915 ± 0.031	0.923 ± 0.041	0.92 ± 0.019	0.998 ± 0.15	0.924 ± 0.11	1.09 ± 0.21	0.906 ± 0.078	1.02 ± 0.033	0.924 ± 0.088
HU09 BONE	0.993 ± 0.16	0.91 ± 0.051	1.08 ± 0.022	1.05 ± 0.11	1.04 ± 0.15	1.19 ± 0.049	0.984 ± 0.17	1.04 ± 0.059	0.977 ± 0.027	0.955 ± 0.056	1.17 ± 0.069	1.09 ± 0.021	1.09 ± 0.046	1.11 ± 0.13	1.09 ± 0.076	1.07 ± 0.12
NCIH441 LUNG	1.16 ± 0.055	1.1 ± 0.056	1.064 ± 0.0076	1.07 ± 0.02	1.08 ± 0.093	1.09 ± 0.052	1.15 ± 0.14	1 ± 0.13	1.08 ± 0.027	1.12 ± 0.063	1.08 ± 0.049	1.13 ± 0.093	1.07 ± 0.2	0.961 ± 0.091	1.02 ± 0.16	1.04 ± 0.21
OSHN BONE	1.091 ± 0.005	1.073 ± 0.0079	1.09 ± 0.022	1.07 ± 0.018	1.12 ± 0.037	1.1 ± 0.018	1.13 ± 0.02	1.08 ± 0.032	1.091 ± 0.0051	1.06 ± 0.022	1.09 ± 0.035	1.05 ± 0.044	1.141 ± 0.0049	1.13 ± 0.015	1.15 ± 0.014	1.113 ± 0.011
H23 LUNG	1.01 ± 0.035	1 ± 0.029	1.04 ± 0.038	0.928 ± 0.065	1.132 ± 0.01	1.12 ± 0.068	1.15 ± 0.074	1.13 ± 0.033	1.06 ± 0.038	1.08 ± 0.029	1.07 ± 0.013	1.01 ± 0.03	1.03 ± 0.037	1.15 ± 0.02	1.09 ± 0.046	1.11 ± 0.067
CADOES1 SOFT TISSUE	0.962 ± 0.048	0.897 ± 0.11	0.821 ± 0.078	0.883 ± 0.13	0.83 ± 0.053	0.921 ± 0.039	0.726 ± 0.011	0.704 ± 0.048	0.992 ± 0.13	0.966 ± 0.11	0.934 ± 0.052	0.987 ± 0.15	0.96 ± 0.11	0.962 ± 0.078	1.1 ± 0.11	1.02 ± 0.11
CCK81 LARGE INTESTINE	–	–	–	–	–	–	–	–	0.883 ± 0.042	0.866 ± 0.092	0.835 ± 0.083	0.831 ± 0.093	0.77 ± 0.038	0.782 ± 0.081	0.784 ± 0.082	0.725 ± 0.043
